Assay results reported in US5852007A, “Cysteine and serine protease inhibitors containing D-amino acid at the P2 position, methods of making same, and methods of using same” (priority 1997, dated 1998).
Read-outs that look alike come from different tables or passages of the source. Square brackets hold non-standard residues; d marks the D form. Peptide text beside a SMILES is read from it. * marks the point of attachment. d2Thi = N[C@H](Cc1cccs1)C(=O)O; Bn = c1ccc(C*)cc1; Ms = CS(=O)(=O)*

Experiments:
Type in all cases: biochemical
[1] = target: T1, Recombinant human calpain I (Homo sapiens, UniProt P07384); experiment: Inhibition of calpain I activity
T1 construct: made in house
T1 sequence (P07384 1-714): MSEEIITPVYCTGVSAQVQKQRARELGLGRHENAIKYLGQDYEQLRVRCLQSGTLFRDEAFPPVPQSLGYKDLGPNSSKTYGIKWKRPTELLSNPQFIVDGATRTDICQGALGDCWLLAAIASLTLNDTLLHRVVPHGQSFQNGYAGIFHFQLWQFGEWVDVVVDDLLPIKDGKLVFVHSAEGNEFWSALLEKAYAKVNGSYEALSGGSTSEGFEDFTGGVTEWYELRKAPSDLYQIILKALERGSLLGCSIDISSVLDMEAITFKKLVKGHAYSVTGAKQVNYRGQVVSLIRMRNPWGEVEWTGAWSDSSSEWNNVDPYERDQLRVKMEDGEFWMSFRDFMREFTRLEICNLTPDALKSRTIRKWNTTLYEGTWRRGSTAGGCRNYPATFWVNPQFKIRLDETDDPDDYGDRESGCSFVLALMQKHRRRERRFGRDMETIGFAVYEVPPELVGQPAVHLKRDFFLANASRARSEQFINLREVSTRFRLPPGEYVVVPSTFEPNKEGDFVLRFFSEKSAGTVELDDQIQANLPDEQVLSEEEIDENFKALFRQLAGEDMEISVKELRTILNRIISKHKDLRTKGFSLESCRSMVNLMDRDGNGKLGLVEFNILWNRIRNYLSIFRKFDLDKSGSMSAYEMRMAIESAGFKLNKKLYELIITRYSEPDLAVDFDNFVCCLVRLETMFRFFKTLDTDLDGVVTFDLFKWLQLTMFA
Method: To evaluate inhibitory activity, stock solutions (40 times concentrated) of exemplary compounds of the invention were prepared in 100% anhydrous DMSO and 5 μL of each inhibitor preparation were aliquoted into each of three wells of a 96-well plate. Recombinant human calpain I, prepared by the method of Meyer et al. (Biochem. […] To start the reaction, 20 μL of 50 mM CaCl2 in assay buffer was added to all wells of the plate, excepting three, which were used as background signal baseline controls. Substrate hydrolysis was monitored every 5 minutes for a total of 30 minutes. […] Inhibition of calpain I activity was calculated as the percent decrease in the rate of substrate hydrolysis in the presence of inhibitor (VI) relative to the rate in its absence (VO). Comparison between VO and VI was made within the linear range for substrate hydrolysis. For screening, compounds were tested at 10, 1.0, and 0.1 μM. […] The results were plotted as % inhibition versus log inhibitor concentration and the IC50 was calculated from linear regression of the data. Apparent second order rate constants were determined from analysis of reaction progress curves under pseudo-first order conditions. Each determination represents the means of three or more independent single cuvette analyses continually monitored via a Perkin-Elmer LS50B spectrofluorimeter. The rate of inhibition of hydrolysis was obtained by fitting the curve to the exponential equation (1): […]

cathepsin B = target: T2, cathepsin B (Homo sapiens, UniProt P07858); experiment: Inhibition of cathepsin B; conditions: for inhibition at 1 µM: read-out: Cat B % I @ 1 uM; for IC50: read-out: Cat B IC50
T2 construct: purchased Calbiochem 219364
Method: (§1) Additionally,the order of reagents added to the plate was altered because both enzymes are constitutively active. Following inhibitor addition to the plates, appropriate 2× concentrated stock dilutions of the enzyme preparations were made in assay buffer and 100 μl added to each well. The assay was initiated by addition of 100 μl of 2× concentrated stock dilution of substrate in assay buffer.

cathepsin L = target: T3, cathepsin L (Homo sapiens, UniProt P07711); experiment: Inhibition of cathepsin L; conditions: for inhibition at 1 µM: Table III, read-out: Cat L % I @ 1 uM; for IC50: Table II, read-out: Cat L IC50
T3 construct: purchased Calbiochem 219402
Method: as §1

thrombin = target: T4, thrombin (Homo sapiens, UniProt P00734); experiment: Inhibition of thrombin; conditions: 10 uM, read-out: Thrombin % I @ 10 uM
T4 construct: purchased Sigma Chem. Co. T-7009

α-chymotrypsin = target: T5, α-chymotrypsin (Bos taurus, UniProt P00766); experiment: Inhibition of α-chymotrypsin; conditions: 10 uM, read-out: Chymotrypsin % I @ 10 uM
T5 construct: purchased Sigma Chem. Co. C-3142
Method: Additionally, because α-chymotrypsin is not a calcium sensitive enzyme and is constitutively active, following addition of inhibitor stocks to the 96 well plates, 100 μl of a 2-fold concentrated stock of enzyme in dilution buffer was first added and the reaction started by addition of 100 μl of a 2-fold concentrated stock of substrate in assay buffer. Substrate hydrolysis was monitored every 5 minutes up to 30 minutes using a Fluoroskan II ([…]).

T3 sequence (P07711 114-288 limits assumed): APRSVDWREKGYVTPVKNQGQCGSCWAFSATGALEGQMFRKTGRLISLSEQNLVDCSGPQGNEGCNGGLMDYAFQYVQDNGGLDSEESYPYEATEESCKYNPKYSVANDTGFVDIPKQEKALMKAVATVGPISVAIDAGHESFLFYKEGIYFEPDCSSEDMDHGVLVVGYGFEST
T3 sequence (P07711 292-333 limits assumed): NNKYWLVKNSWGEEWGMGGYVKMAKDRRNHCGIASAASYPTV

| SMILES | IC50 ([1]; Table III) | inhibition at 0.1 µM ([1]; Table III) | inhibition at 1 µM (cathepsin B; Table III) | inhibition at 1 µM (cathepsin L) | inhibition at 10 µM (thrombin; Table III) | inhibition at 10 µM (α-chymotrypsin; Table III) | IC50 ([1]; Table II) | IC50 (cathepsin B; Table II) | IC50 (cathepsin L) | inhibition at 10 µM (thrombin; Table II) | inhibition at 10 µM (α-chymotrypsin; Table II) | IC50 (cathepsin B; Table III) |
| --- | --- | --- | --- | --- | --- | --- | --- | --- | --- | --- | --- | --- |
| CS(=O)(=O)N1CCC[C@@H]1C(=O)N[C@H](C=O)Cc1ccccc1 [Compound 101] (Ms-[dP]-Phe-aldehyde) | 53 nM | 84% | 46% | 100% | 0% | 2% |  |  |  |  |  |  |
| O=C[C@H](Cc1ccccc1)NC(=O)[C@@H](COCc1ccccc1)NS(=O)(=O)N1CCOCC1 [Compound 53] | 72 nM | 25% | 98% | 100% | 0% | 0% |  |  |  |  |  |  |
| CS(=O)(=O)N[C@H](Cc1c[nH]c2ccccc12)C(=O)N[C@H](C=O)Cc1ccccc1 [Compound 77] (Ms-[dW]-Phe-aldehyde) | 14 nM | 91% | 90% | 93% | 0% | 0% |  |  |  |  |  |  |
| C[N+]([O-])=C[C@H](Cc1ccccc1)NC(=O)[C@@H](COCc1ccccc1)NS(C)(=O)=O [Compound 116] |  | 4% | 96% | 100% | 0% | 0% |  |  |  |  |  |  |
| CC(C)C[C@@H](C=O)NC(=O)[C@@H](COCc1ccccc1)NS(C)(=O)=O [Compound 88] (Ms-[dS](Bn)-Leu-aldehyde) | 93 nM | 40% | 88% | 91% | 5% | 0% |  |  |  |  |  |  |
| CC(=O)N[C@H](CC(=O)N1CCc2ccccc2C1)C(=O)N[C@H](C=O)Cc1ccccc1 [Compound 9, 2-THIQ-C(=O)CH2 CH(NHC(=O)CH3)C(=O)-Phe--H] |  |  |  |  |  |  | 83 nM | 11000 nM | 2000 nM | 0% | 2% |  |
| CC(=O)N[C@H](CSCc1ccccc1)C(=O)N[C@H](C=O)Cc1ccccc1 [Compound 25, BnS--CH2 CH(NHC(=O)CH3)C(=O)-Phe--H] (Ac-[dC](Bn)-Phe-aldehyde) |  |  |  |  |  |  | 26 nM | 5000 nM | 48 nM | 0% | 3% |  |
| O=C[C@H](Cc1ccccc1)NC(=O)[C@@H](COCc1ccccc1)N1C(=O)c2ccccc2C1=O [Compound 94] |  | 14% | 0% | 93% | 0% | 1% |  |  |  |  |  |  |
| O=C[C@H](Cc1ccccc1)NC(=O)[C@@H](COCc1ccccc1)NS(=O)(=O)c1cccs1 [Compound 54] | 13 nM | 95% | 100% | 100% | 4% | 3% |  |  |  |  |  |  |
| CON=C[C@H](Cc1ccccc1)NC(=O)[C@@H](COCc1ccccc1)NS(C)(=O)=O [Compound 119] |  | 19% | 68% | 98% | 0% | 3% |  |  |  |  |  |  |
| CS(=O)(=O)N[C@H](C(=O)N[C@H](C=O)Cc1ccccc1)c1cccs1 [Compound 97] | 37 nM | 79% | 89% | 100% | 4% | 25% |  |  |  |  |  |  |
| CC(C)C[C@@H](C=O)NC(=O)[C@@H](CC(C)C)NS(C)(=O)=O [Compound 87] | 95 nM | 23% | 86% | 96% |  |  |  |  |  |  |  |  |
| Cc1ccc(S(=O)(=O)O[C@H]2C[C@H](C(=O)N[C@H](C=O)Cc3ccccc3)N(S(=O)(=O)c3ccccc3)C2)cc1 [Compound 113] |  | 11% | 47% | 94% | 0% | 0% |  |  |  |  |  |  |
| CC(=O)Nc1ccc(S(=O)(=O)N[C@H](COCc2ccccc2)C(=O)N[C@H](C=O)Cc2ccccc2)cc1 [Compound 51] | 32 nM | 92% | 100% | 100% | 21% | 3% |  |  |  |  |  | 14 nM |
| O=C[C@H](Cc1ccccc1)NC(=O)[C@@H](Cc1c[nH]c2ccccc12)NS(=O)(=O)c1cccs1 [Compound 73] | 14 nM | 95% | 100% | 100% | 12% | 16% |  |  |  |  |  |  |
| C[C@@H](NS(=O)(=O)c1ccccc1)C(=O)N[C@H](C=O)Cc1ccccc1 [Compound 104] | 93 nM | 45% | 86% | 97% | 7% | 6% |  |  |  |  |  |  |
| CS(=O)(=O)N[C@H](Cc1cccs1)C(=O)N[C@H](C=O)Cc1ccccc1 [Compound 100] (Ms-[d2Thi]-Phe-aldehyde) | 15 nM | 96% | 97% | 100% | 0% | 0% |  |  |  |  |  | 31 nM |
| CN(Cc1ccccc1)C(=O)CC[C@@H](NS(C)(=O)=O)C(=O)N[C@H](C=O)Cc1ccccc1 [Compound 79] | 1000 nM | 47% | 99% | 93% | 1% | 8% |  |  |  |  |  |  |
| Cc1nn(C)c(Cl)c1S(=O)(=O)N[C@H](COCc1ccccc1)C(=O)N[C@H](C=O)Cc1ccccc1 [Compound 91] |  | 30% | 68% | 100% | 0% | 53% |  |  |  |  |  |  |
| O=C[C@H](Cc1ccccc1)NC(=O)[C@@H](COCc1ccccc1)NC(=O)OCc1ccccc1 [Compound 64] |  | 68% | 87% | 100% | 0% | 10% |  |  |  |  |  |  |
| Cc1ccc(S(=O)(=O)N2C[C@@H](C#N)C[C@@H]2C(=O)N[C@H](C=O)Cc2ccccc2)cc1 [Compound 129] |  | 73% | 64% | 100% | 1% | 6% |  |  |  |  |  |  |
| O=C[C@H](Cc1ccccc1)NC(=O)[C@@H](Cc1ccccc1)NS(=O)(=O)c1ccc2ccccc2c1 [Compound 72] | 14 nM | 91% | 100% | 100% | 13% | 7% |  |  |  |  |  |  |
| CC(C)(C)OC(=O)N[C@H](CC(=O)N1CCc2ccccc2C1)C(=O)N[C@H](C=O)Cc1ccccc1 [Compound 8, (R)-2-THIQ-C(=O)CH2 CH(NHBoc)C(=O)-Phe--H] |  |  |  |  |  |  | ~20000 nM |  | 24000 nM | 0% | 32% |  |
| Cn1cnc(S(=O)(=O)N[C@H](COCc2ccccc2)C(=O)N[C@H](C=O)Cc2ccccc2)c1 [Compound 63] | 75 nM | 41% |  | 100% | 1% | 40% |  |  |  |  |  |  |
